In patent publication US6235751A, “Quinolizine carboxylic acid derivatives” (Korean Research Institute of Chemical Technology, priority 1997, dated 2001):
Converted amounts (≈) assume the structure as drawn. Like-named read-outs stand apart in the source and are kept apart here.

Tests used:
gyrase of E. coli = gyrase of E. coli (Escherichia coli, UniProt P0AES4+P0AES6); test: Inhibition of gyrase enzyme activity; assay type: biochemical; parameters: unit not given here; conditions: concentration to inhibit the enzyme activity of gyrase of E. coli
Sequence of gyrase of E. coli (P0AES4 whole entry, one chain of several): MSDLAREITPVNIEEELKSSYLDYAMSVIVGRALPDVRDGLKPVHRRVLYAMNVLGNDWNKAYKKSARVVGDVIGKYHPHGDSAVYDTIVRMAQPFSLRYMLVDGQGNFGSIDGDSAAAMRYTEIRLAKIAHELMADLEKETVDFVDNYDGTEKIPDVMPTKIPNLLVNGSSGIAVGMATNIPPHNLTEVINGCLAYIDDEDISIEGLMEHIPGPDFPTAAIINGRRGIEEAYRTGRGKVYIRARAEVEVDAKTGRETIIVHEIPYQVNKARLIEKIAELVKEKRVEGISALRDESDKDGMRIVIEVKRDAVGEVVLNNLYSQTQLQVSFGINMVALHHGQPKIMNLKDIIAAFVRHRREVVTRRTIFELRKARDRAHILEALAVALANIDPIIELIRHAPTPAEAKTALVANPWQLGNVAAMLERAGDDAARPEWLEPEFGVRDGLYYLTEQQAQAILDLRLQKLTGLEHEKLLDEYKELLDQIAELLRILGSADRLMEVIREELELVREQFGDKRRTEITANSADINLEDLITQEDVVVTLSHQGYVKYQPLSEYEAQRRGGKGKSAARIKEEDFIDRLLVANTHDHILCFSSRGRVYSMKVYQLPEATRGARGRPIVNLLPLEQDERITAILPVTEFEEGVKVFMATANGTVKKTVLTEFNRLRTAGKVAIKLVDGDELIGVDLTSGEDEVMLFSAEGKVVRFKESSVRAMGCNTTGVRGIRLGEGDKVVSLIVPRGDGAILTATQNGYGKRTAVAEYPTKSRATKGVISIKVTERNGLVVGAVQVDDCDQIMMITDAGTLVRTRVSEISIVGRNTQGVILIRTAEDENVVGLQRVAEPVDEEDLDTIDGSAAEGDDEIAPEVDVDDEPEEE
Excerpt: (§1) Test 2. Selectivity Index

[1] = test system: Pseudomonas aeruginosa 1771; test: Antibacterial activity in vitro (MIC, two-fold agar dilution); assay type: cell-based; conditions: Muller Hinton agar, 10^7 CFU/ml, 37° C., 18 hours, read-out: Minimal Inhibitory Concentration (MIC)
Excerpt: (§2) Test 1. Antibacterial activity in vitro
14. Pseudomonas aeruginosa 1771

[2] = test system: Staphylococcus aureus 285; test: as above; conditions: Staphylococcus aureus, 285, 18 h, read-out: Minimal Inhibitory Concentration (MIC)
[3] = test system: Pseudomonas aeruginosa 1592E; test: as above; assay type: cell-based; conditions: Muller Hinton agar, 10^7 CFU/ml, 37° C., 18 hours, read-out: Minimal Inhibitory Concentration (MIC)
Excerpt: as §2
13. Pseudomonas aeruginosa 1592 E

[4] = test system: Pseudomonas aeruginosa 9027; test: as above; conditions: Pseudomonas aeruginosa, 9027, 18 h, read-out: Minimal Inhibitory Concentration (MIC)
[5] = test system: Klebsiella aerogenes 1552E; test: as above; conditions: 18 h, read-out: Minimal Inhibitory Concentration (MIC)
Escherichia coli DC 2 = test: as above; assay type: cell-based; conditions: DC2, Muller Hinton agar, 10^7 CFU/ml, 37° C., 18 hours, read-out: Minimal Inhibitory Concentration (MIC)
Excerpt: as §2

Escherichia coli DC 0 = test: as above; assay type: cell-based; conditions: read-out: Minimal Inhibitory Concentration (MIC)
Excerpt: as §2

[6] = test system: calf thymus topoisomerase II; test: Inhibition of topoisomerase II enzyme activity; assay type: biochemical; parameters: unit not given here; conditions: concentration to inhibit the enzyme activity of topoisomerase II (calf thymus)
Excerpt: as §1

Escherichia coli TEM = test: microbe, parasite or virus in culture; conditions: 18 h, read-out: Minimal Inhibitory Concentration (MIC)
Escherichia coli 1507E = test: Antibacterial activity in vitro (MIC, two-fold agar dilution); conditions: 18 h, read-out: Minimal Inhibitory Concentration (MIC)
[7] = test system: Streptococcus pyogenes A 77; test: as above; assay type: cell-based; conditions: read-out: Minimal Inhibitory Concentration (MIC)
Excerpt: as §2
2. Streptococcus pyogenes A 77

[8] = test system: Streptococcus faecium MD 8b; test: as above; assay type: cell-based; conditions: Enterococcus faecium, MD8B, read-out: Minimal Inhibitory Concentration (MIC)
Excerpt: as §2
3. Streptococcus faecium MD 8b

Escherichia coli 078 = test: as above; conditions: Escherichia coli, 078, 18 h, read-out: Minimal Inhibitory Concentration (MIC)
Salmonella typhimurium = test: as above; conditions: Salmonella enterica, 18 h, read-out: Minimal Inhibitory Concentration (MIC)
Klebsiella oxytoca 1082E = test: as above; conditions: 18 h, read-out: Minimal Inhibitory Concentration (MIC)
[9] = test system: Streptococcus pyogenes A 308; test: as above; assay type: cell-based; conditions: read-out: Minimal Inhibitory Concentration (MIC)
Excerpt: as §2
1. Streptococcus pyogenes A 308

[10] = test system: Staphylococcus aureus SG 511; test: as above; assay type: cell-based; conditions: SG511, Muller Hinton agar, 10^7 CFU/ml, 37° C., 18 hours, read-out: Minimal Inhibitory Concentration (MIC)
Excerpt: as §2
4. Staphylococcus aureus SG 511

[11] = test system: Staphylococcus aureus 503; test: as above; conditions: Staphylococcus aureus, 503, 18 h, read-out: Minimal Inhibitory Concentration (MIC)
[12] = test system: Enterobacter cloacae 1321E; test: microbe, parasite or virus in culture; conditions: 18 h, read-out: Minimal Inhibitory Concentration (MIC)
Excerpt: as §2

Enterobacter cloacae P99 = test: microbe, parasite or virus in culture; conditions: P99, 18 h, read-out: Minimal Inhibitory Concentration (MIC)
Excerpt: as §2
19. Enterobacter cloacae P 99

[13] = test system: gyrase of E. coli and calf thymus topoisomerase II; conditions: calculated by equation 1 from IC100, Topo II and IC100, Gyrase
Description: as §1
Selectivity indexes of the compounds of the present invention and control compounds were measured using gyrase purified from of E. coli and calf thymus topoisomerase II obtained from Topogen. Co.
The selectivity index (S.I.) was calculated by the equation 1. [formula]
wherein, IC100, Topo II is the concentration of a compound to inhibit the enzyme activity of topoisomerase II and IC100, Gyrase is the concentration of a compound to inhibit the enzyme activity of gyrase of E. coli.

[14] = Streptococcus pyogenes, A77, 18 h
[15] = Streptococcus pyogenes, A308, 18 h

SMILES | IC100, Gyrase (gyrase of E. coli) | MIC [1] [µg/mL] | MIC [2] [µg/mL] | MIC [3] [µg/mL] | MIC [4] [µg/mL] | MIC [5] [µg/mL] | MIC (Escherichia coli DC 2) [µg/mL] | MIC (Escherichia coli DC 0; Escherichia coli, DC0, 18 h) [µg/mL] | IC100, Topo II [6] | MIC (Escherichia coli TEM) [µg/mL] | MIC (Escherichia coli 1507E) [µg/mL] | MIC [7, 14] [µg/mL] | MIC ([8]; 18 h) [µg/mL] | MIC (Escherichia coli 078) [µg/mL] | MIC (Salmonella typhimurium) [µg/mL] | MIC (Klebsiella oxytoca 1082E) [µg/mL] | MIC [9, 15] [µg/mL] | MIC [10] [µg/mL] | MIC [11] [µg/mL] | MIC [12] [µg/mL] | also measured
O=C(O)c1cn(C2CC2)c2cc(N3CCNCC3)c(F)cc2c1=O [Ciprofloxacin, 1-cyclopropyl-6-fluoro-7-(piperazin-1-yl)-4-oxoquinoline-3-carboxylic acid, reference compound] | 0.5 | 0.195 (≈ 0.589 µM) | 0.781 (≈ 2.36 µM) | 0.195 (≈ 0.589 µM) | 0.195 (≈ 0.589 µM) | 0.013 (≈ 0.0392 µM) | 0.049 (≈ 0.148 µM) | 0.195 (≈ 0.589 µM) | 500 | 0.007 (≈ 0.0211 µM) | 0.007 (≈ 0.0211 µM) | 0.781 (≈ 2.36 µM) | 0.391 (≈ 1.18 µM) | 0.004 (≈ 0.0121 µM) | 0.007 (≈ 0.0211 µM) | < 0.002 | 3.12 (≈ 9.43 µM) | 0.195 (≈ 0.589 µM) | 0.391 (≈ 1.18 µM) | – | –
Cc1c(N2CC3=CCCN[C@H]3C2)c(F)cn2c(=O)c(C(=O)O)cc(C3CC3)c12 [Example 1, 8-{[(R)-2,8-diazabicyclo[4.3. 0]non-5-en]-8-yl}-1-cyclopropyl-7-fluoro-9-methyl-4-oxo-4H-quinolizine-3-carboxylic acid] | 0.5 | 0.098 (≈ 0.256 µM) | 0.013 (≈ 0.0339 µM) | 0.098 (≈ 0.256 µM) | 0.195 (≈ 0.509 µM) | 0.013 (≈ 0.0339 µM) | 0.013 (≈ 0.0339 µM) | – | 1,000 | 0.007 (≈ 0.0183 µM) | 0.007 (≈ 0.0183 µM) | – | – | < 0.002 | 0.004 (≈ 0.0104 µM) | < 0.002 | – | 0.007 (≈ 0.0183 µM) | 0.007 (≈ 0.0183 µM) | < 0.002 | MIC (Escherichia coli DC 0; DC0, Escherichia coli DC 0, Muller Hinton agar, 10^7 CFU/ml, 37° C., 18 hours): 0.049 µg/mL (≈ 0.128 µM); MIC (Enterobacter cloacae P99): 0.004 µg/mL (≈ 0.0104 µM); MIC ([7]; A77, Streptococcus pyogenes A 77, Muller Hinton agar, 10^7 CFU/ml, 37° C., 18 hours): 0.025 µg/mL (≈ 0.0652 µM); MIC ([8]; Streptococcus faecium MD 8b, Muller Hinton agar, 10^7 CFU/ml, 37° C., 18 hours): 0.025 µg/mL (≈ 0.0652 µM); MIC ([9]; A308, Streptococcus pyogenes A 308, Muller Hinton agar, 10^7 CFU/ml, 37° C., 18 hours): 0.049 µg/mL (≈ 0.128 µM); S.I. (Selectivity Index) [13]: 2,000
Cc1c(N2CC(CN)C(OCc3cccnc3)C2)c(F)cn2c(=O)c(C(=O)O)cc(C3CC3)c12 (stereo not shown) [Example 16, 8-{[3-(3-pyridylmethyl)oxy-4-aminomethylpyrrolidine]-1-yl}-1-cyclopropyl-7-fluoro-9-methyl-4-oxo-4H-quinolizine-3-carboxylic acid] | 0.5 | 0.195 (≈ 0.418 µM) | 0.013 (≈ 0.0279 µM) | 0.195 (≈ 0.418 µM) | 0.195 (≈ 0.418 µM) | 0.013 (≈ 0.0279 µM) | 0.013 (≈ 0.0279 µM) | 0.098 (≈ 0.21 µM) | 1,000 | 0.007 (≈ 0.015 µM) | 0.013 (≈ 0.0279 µM) | 0.049 (≈ 0.105 µM) | 0.049 (≈ 0.105 µM) | < 0.002 | 0.004 (≈ 0.00857 µM) | < 0.002 | 0.098 (≈ 0.21 µM) | 0.013 (≈ 0.0279 µM) | 0.013 (≈ 0.0279 µM) | < 0.002 | MIC (Enterobacter cloacae P99): 0.004 µg/mL (≈ 0.00857 µM); S.I. (Selectivity Index) [13]: 2,000
CC1CN(c2c(F)c(N)c3c(=O)c(C(=O)O)cn(C4CC4)c3c2F)CC(C)N1 (stereo not shown) [Sparfloxacin, 1-cyclopropyl-5-amino-6,8-difluoro-7-(3,5-dimethylpiperazin-1-yl)-4-oxoquinoline-3-carboxylic acid, reference compound] | 1.0 | 0.781 (≈ 1.99 µM) | 0.049 (≈ 0.125 µM) | 0.781 (≈ 1.99 µM) | 0.781 (≈ 1.99 µM) | 0.025 (≈ 0.0637 µM) | 0.025 (≈ 0.0637 µM) | 0.195 (≈ 0.497 µM) | 500 | 0.013 (≈ 0.0331 µM) | 0.025 (≈ 0.0637 µM) | 0.195 (≈ 0.497 µM) | 0.391 (≈ 0.996 µM) | 0.004 (≈ 0.0102 µM) | 0.007 (≈ 0.0178 µM) | < 0.002 | 0.391 (≈ 0.996 µM) | 0.098 (≈ 0.25 µM) | 0.049 (≈ 0.125 µM) | 0.004 (≈ 0.0102 µM) | MIC (Enterobacter cloacae P99): 0.007 µg/mL (≈ 0.0178 µM); S.I. (Selectivity Index) [13]: 500
